Assay results reported in patent US7470711B2, “Piperidinyl substituted cyclohexane-1,4-diamines” (Janssen Pharmaceutica N.V., priority 2005, dated 2008).
Like-named read-outs stand apart in the source and are kept apart here.

Columns and labels:
[1] = target: T1, α1d-AR (Homo sapiens, UniProt P25100); assay: α1-Adrenergic receptor radio-ligand binding assay, α1d subtype; details: 125I-HEAT, membranes of COS-7 cells transfected with α1d subtype, rt 1 hr; read-out: Receptor Binding, Ki α1d-AR
T1 construct: expressed in transfected cells; host or cells: COS-7 cells (membranes)
T1 sequence (P25100 1-572): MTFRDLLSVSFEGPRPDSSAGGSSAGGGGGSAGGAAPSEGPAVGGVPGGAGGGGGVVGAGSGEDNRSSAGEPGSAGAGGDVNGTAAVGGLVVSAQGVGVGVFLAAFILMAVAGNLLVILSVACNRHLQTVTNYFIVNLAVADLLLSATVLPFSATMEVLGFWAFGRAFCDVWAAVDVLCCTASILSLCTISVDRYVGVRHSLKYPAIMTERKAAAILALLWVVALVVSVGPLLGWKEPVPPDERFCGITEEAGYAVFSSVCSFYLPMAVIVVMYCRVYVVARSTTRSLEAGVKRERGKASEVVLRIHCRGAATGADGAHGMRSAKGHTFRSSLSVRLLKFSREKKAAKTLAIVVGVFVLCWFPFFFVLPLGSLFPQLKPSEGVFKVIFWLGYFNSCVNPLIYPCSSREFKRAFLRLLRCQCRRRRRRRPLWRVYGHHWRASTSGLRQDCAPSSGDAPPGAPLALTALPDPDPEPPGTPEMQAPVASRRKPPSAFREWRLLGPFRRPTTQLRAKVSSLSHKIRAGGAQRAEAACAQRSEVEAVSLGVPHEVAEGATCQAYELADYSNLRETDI
Experimental: (§1) Membranes were prepared from COS-7 cells (African Green monkey kidney SV40-transformed cells) that had been transfected with one of the three α1-AR subtypes (Genbank accession number for the α1a subtype: AF013261; Genbank accession number for the α1b subtype: NM000679; Genbank accession number for the α1d subtype: NM000678) using the following method: COS cells from ten 100 mm tissue culture plates were scraped into a 5 mL volume of TE (a mixture of 50 mM Tris-HCl, 5 mM EDTA, pH 7.4). […] The disrupted cells were centrifuged at 1000×g for 10 min at 4° C. Supernatants were centrifuged at 34,500×g for 20 min at 4° C. The membrane pellets were suspended in a 2 mL volume of TNE (a mixture of 50 mM Tris-HCl, 5 mM EDTA and 150 mM NaCl at pH 7.4). An aliquot of the membrane suspension was stored at −70° C. until use. The protein concentration was determined using the BioRad “DC” protein assay kit following membrane solubilization with Triton X-100.
(§2) Triplicate determinations of radio-ligand binding in the presence of increasing concentrations of testing compound were made. The reagents were added to 96-well polypropylene plate wells. […] The plate was incubated at rt for 1 hr. The contents of the wells were filtered through a glass filter (type C) (GF/C) membrane Unifilter plate (Packard Instruments) using the Packard Filtermate cell harvester. The filter plates were dried in a vacuum oven for 30 min at 40° C. 25 μL Microscint 20 liquid scintillation fluid (Packard Instuments) was added to each well. The radioactive content was analyzed in the TopCount microplate scintillation counter (Packard Instruments).

[2] = target: T2, α1a-AR (Homo sapiens, UniProt P35348); assay: α1-Adrenergic receptor radio-ligand binding assay, α1a subtype
T2 construct: expressed in transfected cells; host or cells: COS-7 cells (membranes)
T2 sequence (P35348 1-455 isoform P35348-4): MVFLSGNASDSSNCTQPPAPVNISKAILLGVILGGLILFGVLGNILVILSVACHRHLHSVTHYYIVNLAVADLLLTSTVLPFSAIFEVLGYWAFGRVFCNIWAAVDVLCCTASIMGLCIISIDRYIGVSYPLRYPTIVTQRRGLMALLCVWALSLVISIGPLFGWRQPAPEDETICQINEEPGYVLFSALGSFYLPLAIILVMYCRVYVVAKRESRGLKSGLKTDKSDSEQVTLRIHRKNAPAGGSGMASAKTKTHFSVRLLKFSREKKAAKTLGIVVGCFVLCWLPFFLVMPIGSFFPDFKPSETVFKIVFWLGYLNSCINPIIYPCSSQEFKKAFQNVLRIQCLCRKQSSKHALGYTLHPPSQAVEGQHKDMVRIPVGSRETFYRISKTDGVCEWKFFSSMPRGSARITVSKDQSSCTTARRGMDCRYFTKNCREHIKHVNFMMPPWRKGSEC
Experimental: as §1, §2

[3] = target: T3, α1b-AR (Homo sapiens, UniProt P35368); assay: α1-Adrenergic receptor radio-ligand binding assay, α1b subtype; details: 125I-HEAT, membranes of COS-7 cells transfected with α1b subtype, rt 1 hr; read-out: Receptor Binding, Ki α1b-AR
T3 construct: expressed in transfected cells; host or cells: COS-7 cells (membranes)
T3 sequence (P35368 1-520): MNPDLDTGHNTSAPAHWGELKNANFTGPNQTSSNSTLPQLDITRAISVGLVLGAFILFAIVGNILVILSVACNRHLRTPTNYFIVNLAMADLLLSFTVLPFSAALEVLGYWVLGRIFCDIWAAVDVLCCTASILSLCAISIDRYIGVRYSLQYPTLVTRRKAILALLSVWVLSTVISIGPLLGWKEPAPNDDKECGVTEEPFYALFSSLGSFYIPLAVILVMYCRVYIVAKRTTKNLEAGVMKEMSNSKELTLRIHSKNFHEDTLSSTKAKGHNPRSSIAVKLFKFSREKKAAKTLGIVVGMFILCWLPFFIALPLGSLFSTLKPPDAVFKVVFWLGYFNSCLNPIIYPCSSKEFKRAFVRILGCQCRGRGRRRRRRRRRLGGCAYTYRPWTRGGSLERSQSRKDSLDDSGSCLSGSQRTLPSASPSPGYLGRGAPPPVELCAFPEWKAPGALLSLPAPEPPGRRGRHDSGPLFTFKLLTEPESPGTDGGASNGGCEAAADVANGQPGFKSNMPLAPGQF
Experimental: as §1, §2

[4] = system: α1a and α1d subtypes over the α1b subtype; details: cited from earlier work
[5] = system: BPH patients; details: large clinical trials of BPH patients; cited from earlier work
[6] = system: normal rats and rats with bladder hypertrophy secondary to outlet obstruction; details: intrathecally administered; cited from earlier work

Row | Compound | Ki [1] [nM] | melting point [°C] | Ki [3] [nM] | further results
1 | COc1ccc(S(=O)(=O)N[C@H]2CC[C@@H](N3CCC(c4ccccc4OCC(F)F)CC3)CC2)cc1OC [Cpd 29, N-cis-(4-{4-[2-(2,2-difluoro-ethoxy)-phenyl]-piperidin-1-yl}-cyclohexyl)-3,4-dimethoxy-benzenesulfonamide] | 4.1 | 219 | 300 | Ki ([2]; 125I-HEAT, membranes of COS-7 cells transfected with α1a subtype, rt 1 hr, read-out: Receptor Binding, Ki α1a-AR): 12 nM
2 | COc1ccc(S(=O)(=O)N[C@H]2CC[C@H](N3CCC(c4ccccc4OCC(F)F)CC3)CC2)cc1OC [Cpd 30, N-trans-(4-{4-[2-(2,2-difluoro-ethoxy)-phenyl]-piperidin-1-yl}-cyclohexyl)-3,4-dimethoxy-benzenesulfonamide] | 86 | 197 | 681 | Ki [2]: 30.5 nM
3 | CCOc1ccccc1OCCN[C@H](C)Cc1ccc(OC)c(S(N)(=O)=O)c1 [Tamsulosin] | – | – | – | selectivity for the α1a and α1d subtypes over the α1b subtype [4]: about 15 fold; effect on obstructive and irritative symptoms [5]: improvement in both obstructive and irritative symptoms; side effects seen [5]: cardiovascular and erectile dysfunction side effects were seen
4 | COc1cc2nc(N3CCN(C(=O)C4COc5ccccc5O4)CC3)nc(N)c2cc1OC (stereo not drawn) [doxazosin] | – | – | – | micturition pressure [6]: decrease in micturition pressure
